Reference: article PMC6045597, “Probiotics in human gut microbiota can degrade host glycosaminoglycans” (Scientific Reports, 2018)

Legend:
Experiment in all cases: coupled NADH oxidation at […] nm
Format in all cases: biochemical
[1] = target: T1, KduI (Lacticaseibacillus rhamnosus, UniProt C2JUP1); details: isomerase coupled with reductase DhuD or KduD; DHU prepared from unsaturated chondroitin disaccharide (6-sulfate) with UGL
T1 construct: recombinant, expressed in E. coli, purified to homogeneity; encoded in GAG genetic cluster
T1 sequence (C2JUP1 1-281): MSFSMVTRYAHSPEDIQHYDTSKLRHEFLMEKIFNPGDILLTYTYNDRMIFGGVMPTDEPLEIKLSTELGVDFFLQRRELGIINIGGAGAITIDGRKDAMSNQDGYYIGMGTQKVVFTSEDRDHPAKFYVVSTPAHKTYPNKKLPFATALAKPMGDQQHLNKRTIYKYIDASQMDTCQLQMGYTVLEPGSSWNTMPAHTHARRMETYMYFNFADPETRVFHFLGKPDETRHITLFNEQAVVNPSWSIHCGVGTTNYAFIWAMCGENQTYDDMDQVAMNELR

[2] = target: T2, DhuI (Streptococcus agalactiae, UniProt Q8DXE6); details: reference isomerase, coupled with reductase DhuD or KduD; DHU prepared with UGL
T2 construct: gene SAG1905; purified protein
T2 sequence (Q8DXE6 1-212): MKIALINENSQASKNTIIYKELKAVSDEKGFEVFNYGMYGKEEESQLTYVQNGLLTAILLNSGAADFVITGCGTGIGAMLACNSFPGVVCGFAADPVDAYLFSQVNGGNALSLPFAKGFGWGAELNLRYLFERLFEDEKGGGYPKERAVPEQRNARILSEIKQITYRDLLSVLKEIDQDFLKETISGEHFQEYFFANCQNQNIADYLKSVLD

[3] = target: T3, KduD (Lacticaseibacillus rhamnosus, UniProt A0A0E3CKR8); details: DK-II formed in situ from DHU by KduI or DhuI
T3 construct: recombinant, expressed in E. coli, purified to homogeneity; encoded in GAG genetic cluster
T3 sequence (A0A0E3CKR8 23-274): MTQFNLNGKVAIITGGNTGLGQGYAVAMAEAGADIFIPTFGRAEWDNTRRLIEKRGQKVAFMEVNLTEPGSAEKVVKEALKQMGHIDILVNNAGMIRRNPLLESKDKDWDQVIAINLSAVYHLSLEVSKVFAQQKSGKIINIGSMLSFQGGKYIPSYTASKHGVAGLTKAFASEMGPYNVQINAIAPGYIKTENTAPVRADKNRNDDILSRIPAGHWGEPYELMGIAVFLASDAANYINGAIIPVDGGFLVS

[4] = target: T4, DhuD (Streptococcus agalactiae, UniProt Q8E370); details: reference reductase, DK-II formed in situ from DHU by DhuI or KduI
T4 construct: gene gbs1891; purified protein
T4 sequence (Q8E370 1-270): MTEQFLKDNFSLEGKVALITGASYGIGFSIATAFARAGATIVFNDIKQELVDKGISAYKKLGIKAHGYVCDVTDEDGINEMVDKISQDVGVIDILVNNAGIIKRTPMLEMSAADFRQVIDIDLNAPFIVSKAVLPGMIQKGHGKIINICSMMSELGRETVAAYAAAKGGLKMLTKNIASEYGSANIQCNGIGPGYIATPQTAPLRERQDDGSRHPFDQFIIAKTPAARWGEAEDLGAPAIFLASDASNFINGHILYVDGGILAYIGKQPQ

SMILES | coupled NADH oxidation at 340 nm [1] | coupled NADH oxidation at 340 nm [2] | coupled NADH oxidation at 340 nm [3] | coupled NADH oxidation at 340 nm [4]
O=C[C@H](O)[C@@H](O)CC(=O)C(=O)O [DHU, 4-deoxy-l-threo-5-hexosulose-uronic acid] | KduI catalyses the isomerase reaction from DHU to DK-II | successive reaction of isomerase (DhuI or KduI) and reductase (DhuD or KduD) | – | –
O=C(O)C(=O)C[C@H](O)C(=O)CO [DK-II, 3-deoxy-d-glycero-2,5-hexodiulosonic acid] | – | – | DK-II, which is further reduced to KDG by NADH-dependent reductase KduD | successive reaction of isomerase (DhuI or KduI) and reductase (DhuD or KduD)
NC(=O)C1=CN([C@@H]2O[C@H](COP(=O)(O)OP(=O)(O)OC[C@H]3O[C@@H](n4cnc5c(N)ncnc54)[C@H](O)[C@@H]3O)[C@@H](O)[C@H]2O)C=CC1 [NADH] | – | – | further reduced to KDG by NADH-dependent reductase KduD | –
